In publication PMC6100044 (Molecules : A Journal of Synthetic Chemistry and Natural …, 2018):
Like-named read-outs stand apart in the source and are kept apart here.

Assays:
[1] = test system: P. falciparum CQ-sensitive D10; test: In vitro antimalarial assay (pLDH), Pf D10 strain; format: cell-based, Plasmodium falciparum; details: for IC50: read-out: D10 (CQ-S) Mean ± S.D. IC50; for Ratio IC50 cpd/IC50 DHA: D10 strain; for SI IC50WEHI-164/IC50 cpd: selectivity index versus D10 strain
Method: (§1) Compounds were dissolved in either water or DMSO and then diluted with medium to achieve the required concentrations (final DMSO concentration <1%, which is non-toxic to the parasite). […] Parasite growth was determined spectrophotometrically (OD650) by measuring the activity of the parasite lactate dehydrogenase (pLDH) according to a modification of the method of Makler in control and drug-treated cultures.
(§2) As a blank, uninfected RBCs were used for the antimalarial assays or media without cells for the cytotoxicity assays. The percent viability was plotted as a function of drug concentrations, and the curve fitting was obtained by nonlinear regression analysis using a four parameter logistic method (software Gen5 1.10 provided with the Synergy4 plate reader [Biotek]).

[2] = test system: P. falciparum CQ-resistant W-2; test: In vitro antimalarial assay (pLDH), Pf W-2 strain; format: cell-based, Plasmodium falciparum; details: for IC50: 72 h, read-out: W-2 (CQ-R) Mean ± S.D. IC50; for Ratio IC50 cpd/IC50 DHA: W-2 strain; for SI IC50WEHI-164/IC50 cpd: selectivity index versus W-2 strain
Method: as §1, §2

[3] = test system: mouse fibrosarcoma cell line WEHI-164; test: Cytotoxicity, MTT assay, WEHI-164; format: cell-based; details: read-out: WEHI-164 Mean ± S.D. IC50
[4] = test system: myelogenous leukemia cell line K562; test: Cytotoxicity, MTT assay, K562; format: cell-based, human; details: for IC50: Homo sapiens, K562, MTT assay conducted for 72 h, read-out: Mean (±S.D.) IC50 K562
Method: (§3) Selected compounds were carried forward for screening against the immortalized myelogenous leukemia, K562, human microvascular endothelial cells (HMEC-1) and fresh human fibroblasts HDF (Table 2) using the MTT assay, as above.
(§4) A long term microvascular endothelial cell line (HMEC-1) immortalized by SV 40 large T antigen was kindly provided by Dr. Francisco J. Candal, Center for Disease Control, Atlanta, GA, USA. […] Fibroblasts from skin biopsies were maintained in DMEM (EuroClone, Pero, Italy) supplemented with 10% fetal calf serum (HyClone, Logan, UT, USA), 2 mM glutamine, 100 U/mL of penicillin and 100 µg/mL of streptomycin.
(§5) Cells were then treated with serial dilutions of test compounds and cell proliferation evaluated using the MTT assay as previously described. […] All the tests were performed in triplicate at least three times.
as §2

[5] = test system: fresh human dermal fibroblasts HDF; test: Cytotoxicity, MTT assay, HDF; format: cell-based; details: Fibroblast, MTT assay conducted for 72 h, read-out: Mean (±S.D.) IC50 HDF
Method: as §3, §4, §5, §2

[6] = test system: different strains of Plasmodium falciparum (Pf); test: In vitro antimalarial assay (pLDH), summary over different Pf strains; format: cell-based; details: for IC50: Plasmodium falciparum, range over D10 and W-2 strains, read-out: IC50 against different strains of Plasmodium falciparum; for selectivity index (SI) with respect to WEHI-164: WEHI-164 IC50 / antimalarial IC50, over the strains
Method: as §1, §2

[7] = test system: human microvascular endothelial cells (HMEC-1); test: Cytotoxicity, MTT assay, HMEC-1; format: cell-based; details: MTT assay conducted for 72 h, read-out: Mean (±S.D.) IC50 HMEC
Method: as §3, §4, §5, §2

[8] = test system: Plasmodium falciparum (Pf) D6; details: Pf D6 in vitro; cited from earlier work
[9] = test system: Plasmodium falciparum (Pf) W2; details: Pf W2 in vitro; cited from earlier work
[10] = parameters: method as in earlier work; details: 28 (artemisone), 29 (DHA); cited from earlier work
[11] = human; cited from earlier work
Pf = details: fold more active; cited from earlier work
[12] = fold more active; cited from earlier work
[13] = cited from earlier work
[14] = CQ-sensitive strain, 72 h, pLDH readout
[15] = Plasmodium falciparum, D10, 72 h, CQ-sensitive strain, 72 h, pLDH readout
[16] = CQ-resistant strain, pLDH readout
[17] = Plasmodium falciparum, CQ-resistant strain, pLDH readout
[18] = Mus musculus, WEHI-164, 72 h, MTT, 72 h

| Structure (SMILES) | IC50 [1, 14] | Ratio IC50 cpd/IC50 DHA [1] | IC50 [1, 15] | SI IC50WEHI-164/IC50 cpd [1] | IC50 [2, 16] | Ratio IC50 cpd/IC50 DHA [2] | SI IC50WEHI-164/IC50 cpd [2] | IC50 [3, 18] | IC50 [4] | IC50 [5] | IC50 ([3]; MTT, 72 h) | also measured |
| --- | --- | --- | --- | --- | --- | --- | --- | --- | --- | --- | --- | --- |
| CC1CCC2C(C)C(N3CCN(C4OC(C)C(O)C(O)C4O)CC3)OC3OC4(C)CCC1C32OO4 (stereo not drawn) [Compound 23] | 0.00074 ± 0.00034 µM | 0.22 | < 0.001 µM | 878 | 0.00074 ± 0.0003 µM | 0.49 | 878 | 0.65 ± 0.06 µM | 1.95 ± 0.48 µM | 314 ± 85.6 µM | – | IC50 [2, 17]: < 0.001 µM; IC50 [6]: 0.00058 to 0.00087 µM; selectivity index (SI) with respect to WEHI-164 [6]: > 195 |
| CC1CCC2C(C)C(N3CCN(C4OC(CO)C(OC5OC(CO)C(O)C(O)C5O)C(O)C4O)CC3)OC3OC4(C)CCC1C32OO4 (stereo not drawn) [Compound 21] | – | 0.56 | 0.0019 ± 0.0011 µM | 131 | – | 1.0 | 166 | 0.25 ± 0.09 µM | 0.78 ± 0.15 µM | 534 ± 9.9 µM | – | IC50 [2, 17]: 0.0015 ± 0.0005 µM; IC50 [7]: 2.5 ± 0.8 µM |
| CC1CCC2C(C)C(N3CCNCC3)OC3OC4(C)CCC1C32OO4 (stereo not drawn) [Compound 10, 10α-(1-Piperazino)-10-deoxo-10-dihydroartemisinin] | – | 0.41 | 0.0014 ± 0.0005 µM | 107 | – | 0.73 | 136 | 0.15 ± 0.01 µM | – | – | – | IC50 [2, 17]: 0.0011 ± 0.0004 µM |
| CC1CCC2C(C)C(OC3OC(CO)C(O)C(O)C3O)OC3OC4(C)CCC1C32OO4 (stereo not drawn) [Compound 12] | – | – | – | – | – | – | – | – | – | – | – | IC50 [8]: 0.0294 µM; IC50 [9]: 0.0797 µM |
| CC1CCC2C(C)C(N3CCN(C4OC(CO)C(O)C(O)C4O)CC3)OC3OC4(C)CCC1C32OO4 (stereo not drawn) [Compound 18] | 0.0013 ± 0.0001 µM | 0.38 | – | 215 | 0.0012 ± 0.0003 µM | 0.8 | 233 | – | 0.81 ± 0.24 µM | 382 ± 31.2 µM | 0.28 ± 0.08 µM | IC50 [7]: 4.41 ± 2.29 µM |
| CC1CCC2C(C)C(N3CCN(C4OC(CO)C(O)C(O)C4O)CC3)OC3OC4(C)CCC1C32OO4 (stereo not drawn) [Compound 19] | 0.00087 ± 0.00025 µM | 0.26 | – | 195 | 0.00071 ± 0.0002 µM | 0.5 | 239 | – | – | – | 0.17 ± 0.03 µM | IC50 [6]: 0.00058 to 0.00087 µM; selectivity index (SI) with respect to WEHI-164 [6]: > 195 |
| CC1CCC2C(C)C(N3CCN(C4OC(CO)C(O)C4O)CC3)OC3OC4(C)CCC1C32OO4 (stereo not drawn) [Compound 26] | 0.0013 ± 0.0008 µM | 0.38 | – | 161 | 0.00082 ± 0.00025 µM | 0.55 | 256 | – | – | – | 0.21 ± 0.01 µM | – |
| CC1CCC2C(C)C(N3CCN(C4CC(O)C(O)C(CO)O4)CC3)OC3OC4(C)CCC1C32OO4 (stereo not drawn) [Compound 22] | – | 0.68 | 0.0023 ± 0.001 µM | 222 | – | 0.73 | 463 | 0.51 ± 0.1 µM | – | – | – | IC50 [2, 17]: 0.0011 ± 0.0004 µM |
| CC[C@@]1(O)C(=O)OCc2c1cc1n(c2=O)Cc2cc3ccccc3nc2-1 [Camptothecin, camptothecin, reference compound] | – | – | – | – | – | – | – | – | 0.03 ± 0.01 µM | 2.62 ± 0.84 µM | – | SI with respect to the human dermal fibroblasts (HDF) ([4]; HDF versus K562): < 100 |
| C[C@H]1[C@@H](O)O[C@@H]2O[C@@]3(C)CC[C@H]4[C@H](C)CC[C@@H]1[C@@]24OO3 [DHA 2, dihydroartemisinin, reference compound] | – | – | 0.0034 ± 0.0016 µM | – | – | – | – | 0.72 ± 0.14 µM | 2.76 ± 0.66 µM | 88.7 ± 13.3 µM | – | IC50 [7]: 1.16 ± 0.4 µM; elimination half-life [10]: ~ 1 h; plasma clearance [10]: ~ 5.4 L/h/kg; volume of distribution [10]: 7.7 L/kg; half-life of antimalarial activity [11]: ~ 3 h |
| CC1CCC2C(C)C(N3CCN(C4OC(CO)C(O)C4O)CC3)OC3OC4(C)CCC1C32OO4 (stereo not drawn) [Compound 24] | 0.0048 ± 0.0029 µM | 1.4 | – | 102 | 0.0041 ± 0.0032 µM | 2.7 | 119 | – | 0.87 ± 0.05 µM | 389 ± 8.6 µM | 0.49 ± 0.2 µM | IC50 [7]: 2.39 ± 1.51 µM |
| CCN(CC)CCCC(C)Nc1ccnc2cc(Cl)ccc12 (stereo not drawn) [Chloroquine, chloroquine, reference compound] | – | – | – | – | – | – | – | – | – | – | – | IC50 ([1]; Plasmodium falciparum, D10, 72 h): 0.0234 ± 0.0101 µM; IC50 ([2]; Plasmodium falciparum): 0.264 ± 0.143 µM; IC50 ([3]; Mus musculus, WEHI-164, 72 h): > 10 µM |
| CC1CCC2C(C)C(N3CCN(C4OC(CO)C(O)C4O)CC3)OC3OC4(C)CCC1C32OO4 (stereo not drawn) [Compound 25] | 0.00066 ± 0.0002 µM | 0.19 | – | 242 | 0.00058 ± 0.0003 µM | 0.39 | 275 | – | – | – | 0.16 ± 0.04 µM | IC50 [6]: 0.00058 to 0.00087 µM; selectivity index (SI) with respect to WEHI-164 [6]: > 195 |
| C[C@H]1[C@H](N2CCS(=O)(=O)CC2)O[C@@H]2O[C@@]3(C)CC[C@H]4[C@H](C)CC[C@@H]1[C@@]24OO3 [Artemisone 7, artemisone, reference compound] | – | 0.32 | 0.0011 ± 0.0004 µM | 269 | – | 0.6 | 328 | 0.296 ± 0.059 µM | 0.26 ± 0.04 µM | 88.3 ± 33.8 µM | – | IC50 [2, 17]: 0.0009 ± 0.0004 µM; IC50 [6]: 0.0009 to 0.0011 µM; elimination half-life [10]: ~ 3 h; plasma clearance [10]: ~ 3.5 L/h/kg; volume of distribution [10]: 14.5 L/kg; activity relative to artesunate 4 against Pf in vitro (Pf): nine-fold; activity relative to artesunate 4 in vivo [12]: at least three-fold; neurotoxicity in vitro and in vivo [13]: negligible neurotoxicity |
| CC1CCC2C(C)C(N3CCN(C4OC(CO)C(O)C(O)C4O)CC3)OC3OC4(C)CCC1C32OO4 (stereo not drawn) [Compound 20] | 0.0057 ± 0.0029 µM | 1.7 | – | 596 | 0.0044 ± 0.0023 µM | 2.9 | 772 | – | – | – | 3.4 µM | – |
| CC1CCC2C(C)C(OC3OC(CO)C(O)C(O)C3O)OC3OC4(C)CCC1C32OO4 (stereo not drawn) [Compound 11] | – | – | – | – | – | – | – | – | – | – | – | IC50 [8]: 0.272 µM; IC50 [9]: 0.0763 µM |
| C[C@@H]1CC[C@H]2[C@@H](C)C(=O)O[C@@H]3O[C@@]4(C)CC[C@@H]1[C@]32OO4 [artemisinin 1, artemisinin] | – | – | – | – | – | – | – | – | – | – | – | IC50 [8]: 0.0104 µM; IC50 [9]: 0.0024 µM |
